These results are taken from patent US10245847B2, “Reaction solution and ink jet recording method” (Seiko Epson Corporation, priority 2016, dated 2019).

Where only a bound is given, the exact number is not on record here.

A short description of series [1]: log P value (water octanol distribution coefficient) of organic solvents. The text has this: Here, regarding several organic solvents, a log P value (water octanol distribution coefficient) will be described below. […] Note that, numbers in parentheses indicate log P values.
Here, “log P value” means an index indicating the hydrophobicity of the compound. The log P value indicates the ratio of the solutes distributed in these two layers in the octanol/water system. In other words, the larger the log P value of the solute is, the higher the hydrophobicity is, and it dissolves well in the octanol phase. Further, the fact that the log P values of the two kinds of substances are approximate means that the hydrophobicity of each is similar. The log P value can be obtained by, for example, a flask shaking method in which a solute and two kinds of solvents are actually put into a flask and are stirred well, and an HPLC method using high performance liquid chromatography (HPLC).

A short description of series [2]: degree of solubility with respect to an aqueous solution having a concentration of 2-pyrrolidone of 20% by mass. The following applies: 20% by mass 2-pyrrolidone aqueous solution, 25° C.
Setting [3] is: LogP, Table 2, organic solvents of the reaction solution.
Setting [4] is: LogP, Table 3, organic solvents of the reaction solution.

Broadly, the logP is the decadic logarithm of the partition coefficient of the neutral form, usually between octanol and water. The low end stands for lower lipophilicity, the high end for higher lipophilicity. As to `CCC(O)CO` (stereo not drawn) [1,2-butanediol], the logP in series [1] (octanol/water) amounted to 0.06. Also, the “Solubility to 2-pyrrolidone aqueous solution” value (“Solubility” below) in series [2] (Table 1) is listed as at least 1%.

Compound `COC(C)CCO` (stereo not drawn) [3-methoxy-1-butanol] returned a logP in series [1] of 0.07. Also, the “Solubility” value in series [2] (Table 2) and in series [2] (Table 3) was at least 1% throughout.

In turn, `COC(C)(C)CCO` [3-methoxy-3-methylbutanol] showed a logP in series [1] of -0.63.

Usually LogP stands for a log measure of how a compound divides between an organic and an aqueous phase. A high value points to higher lipophilicity. The compound `COCCC(=O)N(C)C` [3-methoxy-N,N-dimethyl propanamide] registered a LogP in series [1] of 0.73.

In series [1], `CC(=O)OCCOC(C)=O` [Ethylene glycol diacetate] showed a LogP of 0.40 and a logP of 0.4.

`OCC(O)CO` [Glycerin]: the LogP in series [1] is listed as −1.76.

In turn, `CCC(=O)N(C)C` [N,N-dimethyl propionamide] returned a logP in series [1] of 0.46. Further, in series [2] (Table 3), the “Solubility” value is at least 1%.

For `CCCCOCCOCCOCCCC` [diethylene glycol di-n-butyl ether], in series [1], the LogP worked out at 1.92 and the logP was determined as 1.92.

In the case of `CCOCCOCCOC` [diethylene glycol ethyl methyl ether], in series [1], the logP was found to be 0.69. Also, the “Solubility” value in series [2] (Table 2) and in series [2] (Table 3) was at least 1% in each case.

In series [1], `CCCCOCCOCCO` [diethylene glycol monobutyl ether] yielded a logP of 1.19.

On to `COCCOCCO` [diethylene glycol monomethyl ether], for which the logP in series [1] (setting [3]) and in series [1] (setting [4]) was -1.18 each time. Besides, the “Solubility” value in series [2] (Table 2) and in series [2] (Table 3) was at least 1% each time.

`CCCCCCOCCO` [ethylene glycol mono-n-hexyl ether]: the log partition coefficient (logP) in series [1] worked out at 1.57. Further, the “Solubility” value in series [2] (Table 2) and in series [2] (Table 3) was at least 1% in each case.

The compound `CCCCOCCOC(C)=O` [ethylene glycol monobutyl ether acetate] had a logP in series [1] (octanol/water) of 1.79. The “Solubility” value in series [2] (Table 2) and in series [2] (Table 3) was at least 1% each time.

On to `CC(=O)OCC(C)OC(C)=O` (stereo not drawn) [propylene glycol diacetate], for which the logP in series [1] was 0.74.

Turning to `CCC(=O)OCC(C)OC(=O)CC` (stereo not drawn) [propylene glycol dipropionate], the logP in series [1] stood at 1.76.

For `CCCCOCC(C)O` (stereo not drawn) [propylene glycol monobutyl ether], in series [1], the logP was 1.19. For the same compound, the “Solubility” value in series [2] (Table 2) and in series [2] (Table 3) was at least 1% throughout.

`CCCOCC(C)O` (stereo not drawn) [propylene glycol monopropyl ether] displayed a logP in series [1] of -0.81.

For the compound `CC(O)CO` (stereo not drawn) [propylene glycol], the logP in series [1] was -1.4.

In series [1], `COCCOCCOCCOC` [triethylene glycol dimethyl ether] gave a logP of -0.67.

As for `CCCCOCCOCCOCCO` [triethylene glycol monobutyl ether], the logP in series [1] stood at 0.51.

As for `O=C1CCCO1` [γ-butyrolactone], the logP was -0.64 in series [1] (setting [3]); -0.64 in series [1] (setting [4]); -0.64 in series [1] (log P value (water octanol distribution coefficient), octanol/water). Moreover, the “Solubility” value in series [2] (Table 2) and in series [2] (Table 3) was at least 1% each time.

Turning to polyethylene glycol monomethyl ether, in series [1], the LogP is listed as 0.80. Besides, the “Solubility” value in series [2] (Table 2) and in series [2] (Table 3) was at least 1% in each case.
